Measurements published in ChEMBL document CHEMBL3297661, “1-Substituted-5-[(3,5-dinitrobenzyl)sulfanyl]-1H-tetrazoles and their isosteric analogs: A new class of selective antitubercular agents active against drug-susceptible and multidrug-resistant mycobacteria” (Eur J Med Chem, 2014).
≈ marks a conversion by molar mass, not a printed value.

tested on: not listed separately; test: Cytotoxicity against MDCK2 cells assessed as reduction in cell viability after 48 hrs by MTT assay; type: cell-based; conditions: Canis lupus familiaris, MDCK-II

**Q.** For `O=[N+]([O-])c1cc(CSc2nnnn2-c2ccc(Cl)c(Cl)c2)cc([N+](=O)[O-])c1`, which IC50 is on record?
**A.** > 30 µM

tested on: Klebsiella pneumoniae; test: Antibacterial activity against extended spectrum beta-lactamase producing Klebsiella pneumoniae J 14368/08 after 24 hrs by broth microdilution method; type: functional; conditions: J 14368/08, 24 h

**Q.** Which IC95 does the source give for `O=[N+]([O-])c1cc(CSc2nnnn2-c2ccc(Cl)c(Cl)c2)cc([N+](=O)[O-])c1` here?
**A.** > 125 µM

tested on: Escherichia coli; test: Antibacterial activity against Escherichia coli ATCC 8739 after 24 hrs by broth microdilution method; type: functional; conditions: ATCC 8739, ATCC 8739, 24 h

**Q.** With `O=[N+]([O-])c1cc(CSc2nnnn2-c2ccc(Cl)c(Cl)c2)cc([N+](=O)[O-])c1` as the compound, how does the IC95 read?
**A.** > 125 µM

tested on: HeLa; test: Cytotoxicity against human HeLa cells assessed as reduction in cell viability after 48 hrs by MTT assay; type: cell-based; conditions: not given

**Q.** Which IC50 does the source give for `O=[N+]([O-])c1cc(CSc2nnnn2-c2ccc(Cl)c(Cl)c2)cc([N+](=O)[O-])c1` here?
**A.** > 30 µM

tested on: not listed separately; test: Cytotoxicity against human HuH7 cells assessed as reduction in cell viability after 48 hrs by MTT assay; type: cell-based; conditions: Huh-7, 48 h

**Q.** Which IC50 does the source give for `O=[N+]([O-])c1cc(CSc2nnnn2-c2ccc(Cl)c(Cl)c2)cc([N+](=O)[O-])c1` here?
**A.** > 30 µM

tested on: Staphylococcus aureus; test: Antibacterial activity against Staphylococcus aureus ATCC 6538 after 48 hrs by broth microdilution method; type: functional; conditions: ATCC 6538, 48 h

**Q.** For `O=[N+]([O-])c1cc(CSc2nnnn2-c2ccc(Cl)c(Cl)c2)cc([N+](=O)[O-])c1`, which IC95 is on record?
**A.** > 125 µM

tested on: Klebsiella pneumoniae; test: Antibacterial activity against Klebsiella pneumoniae D 11750/08 after 24 hrs by broth microdilution method; type: functional; conditions: D 11750/08, 24 h

**Q.** Which IC95 does the source give for `O=[N+]([O-])c1cc(CSc2nnnn2-c2ccc(Cl)c(Cl)c2)cc([N+](=O)[O-])c1` here?
**A.** > 125 µM

tested on: Trichosporon asahii; test: Antifungal activity against Trichosporon asahii 1188 after 24 hrs by broth microdilution method; type: functional; conditions: Trichosporon asahii, 1188, 24 h

**Q.** With `O=[N+]([O-])c1cc(CSc2nnnn2-c2ccc(Cl)c(Cl)c2)cc([N+](=O)[O-])c1` as the compound, how does the IC80 read?
**A.** > 125 µM

tested on: Candida tropicalis; test: Antifungal activity against Candida tropicalis 156 after 24 hrs by broth microdilution method; type: functional; conditions: Candida tropicalis, 156, 24 h

**Q.** With `O=[N+]([O-])c1cc(CSc2nnnn2-c2ccc(Cl)c(Cl)c2)cc([N+](=O)[O-])c1` as the compound, how does the IC80 read?
**A.** > 125 µM

tested on: HepG2; test: Cytotoxicity against human HepG2 cells assessed as reduction in cell viability after 48 hrs by MTT assay; type: cell-based; conditions: HepG2, 48 h

**Q.** For `O=[N+]([O-])c1cc(CSc2nnnn2-c2ccc(Cl)c(Cl)c2)cc([N+](=O)[O-])c1`, which IC50 is on record?
**A.** 26 µM

tested on: Enterococcus faecalis; test: Antibacterial activity against Enterococcus faecalis J 14365/08 after 48 hrs by broth microdilution method; type: functional; conditions: J 14365/08, 48 h

**Q.** With `O=[N+]([O-])c1cc(CSc2nnnn2-c2ccc(Cl)c(Cl)c2)cc([N+](=O)[O-])c1` as the compound, how does the IC95 read?
**A.** > 125 µM

tested on: Trichophyton mentagrophytes; test: Antifungal activity against Trichophyton mentagrophytes 445 after 72 hrs by broth microdilution method; type: functional, organism-based; conditions: Trichophyton mentagrophytes, 445, 72 h

**Q.** Which IC50 does the source give for `O=[N+]([O-])c1cc(CSc2nnnn2-c2ccc(Cl)c(Cl)c2)cc([N+](=O)[O-])c1` here?
**A.** > 125 µM

tested on: Mycobacterium kansasii; test: Antimycobacterial activity against Mycobacterium kansasii 6509/96 after 7 days by micromethod; type: functional; conditions: 6509/96, 168 h

**Q.** For `O=[N+]([O-])c1cc(CSc2nnnn2-c2ccc(Cl)c(Cl)c2)cc([N+](=O)[O-])c1`, which MIC is on record?
**A.** 1 µM (≈ 0.427 µg/mL)

tested on: Pseudomonas aeruginosa; test: Antibacterial activity against Pseudomonas aeruginosa ATCC 9027 after 24 hrs by broth microdilution method; type: functional; conditions: ATCC 9027, 24 h

**Q.** With `O=[N+]([O-])c1cc(CSc2nnnn2-c2ccc(Cl)c(Cl)c2)cc([N+](=O)[O-])c1` as the compound, how does the IC95 read?
**A.** > 125 µM

tested on: Pichia kudriavzevii; test: Antifungal activity against Candida krusei E28 after 24 hrs by broth microdilution method; type: functional; conditions: E28, 24 h

**Q.** With `O=[N+]([O-])c1cc(CSc2nnnn2-c2ccc(Cl)c(Cl)c2)cc([N+](=O)[O-])c1` as the compound, how does the IC80 read?
**A.** > 125 µM

tested on: Trichophyton mentagrophytes; test: Antifungal activity against Trichophyton mentagrophytes 445 after 120 hrs by broth microdilution method; type: functional, organism-based; conditions: Trichophyton mentagrophytes, 445, 120 h

**Q.** Which IC50 does the source give for `O=[N+]([O-])c1cc(CSc2nnnn2-c2ccc(Cl)c(Cl)c2)cc([N+](=O)[O-])c1` here?
**A.** > 125 µM

tested on: Enterococcus faecalis; test: Antibacterial activity against Enterococcus faecalis J 14365/08 after 24 hrs by broth microdilution method; type: functional; conditions: J 14365/08, 24 h

**Q.** Which IC95 does the source give for `O=[N+]([O-])c1cc(CSc2nnnn2-c2ccc(Cl)c(Cl)c2)cc([N+](=O)[O-])c1` here?
**A.** > 125 µM

tested on: Mycobacterium kansasii; test: Antimycobacterial activity against Mycobacterium kansasii 6509/96 after 21 days by micromethod; type: functional; conditions: 6509/96, 504 h

**Q.** Which MIC does the source give for `O=[N+]([O-])c1cc(CSc2nnnn2-c2ccc(Cl)c(Cl)c2)cc([N+](=O)[O-])c1` here?
**A.** 4 µM (≈ 1.71 µg/mL)

tested on: Mycobacterium kansasii; test: Antimycobacterial activity against Mycobacterium kansasii CNCTC My 235/80 after 21 days by micromethod; type: functional; conditions: CNCTC My 235/80, 504 h

**Q.** For `O=[N+]([O-])c1cc(CSc2nnnn2-c2ccc(Cl)c(Cl)c2)cc([N+](=O)[O-])c1`, which MIC is on record?
**A.** 2 µM (≈ 0.854 µg/mL)

tested on: Lichtheimia corymbifera; test: Antifungal activity against Absidia corymbifera 272 after 24 hrs by broth microdilution method; type: functional, organism-based; conditions: Lichtheimia corymbifera, 272, 24 h

**Q.** For `O=[N+]([O-])c1cc(CSc2nnnn2-c2ccc(Cl)c(Cl)c2)cc([N+](=O)[O-])c1`, which IC50 is on record?
**A.** > 125 µM

tested on: Aspergillus fumigatus; test: Antifungal activity against Aspergillus fumigatus 231 after 24 hrs by broth microdilution method; type: functional, organism-based; conditions: Aspergillus fumigatus, 231, 24 h

**Q.** With `O=[N+]([O-])c1cc(CSc2nnnn2-c2ccc(Cl)c(Cl)c2)cc([N+](=O)[O-])c1` as the compound, how does the IC50 read?
**A.** > 125 µM

tested on: not listed separately; test: Cytotoxicity against human HepG2 cells assessed as cell viability at 30 uM after 48 hrs by MTT assay; type: cell-based; conditions: read-out: Activity

**Q.** With `O=[N+]([O-])c1cc(CSc2nnnn2-c2ccc(Cl)c(Cl)c2)cc([N+](=O)[O-])c1` as the compound, how does the viability at 48 h, 30 µM read?
**A.** 42%

tested on: Mycobacterium kansasii; test: Antimycobacterial activity against Mycobacterium kansasii CNCTC My 235/80 after 14 days by micromethod; type: functional; conditions: CNCTC My 235/80, 336 h

**Q.** Which MIC does the source give for `O=[N+]([O-])c1cc(CSc2nnnn2-c2ccc(Cl)c(Cl)c2)cc([N+](=O)[O-])c1` here?
**A.** 1 µM (≈ 0.427 µg/mL)

tested on: Klebsiella pneumoniae; test: Antibacterial activity against Klebsiella pneumoniae D 11750/08 after 48 hrs by broth microdilution method; type: functional; conditions: D 11750/08, 48 h

**Q.** Which IC95 does the source give for `O=[N+]([O-])c1cc(CSc2nnnn2-c2ccc(Cl)c(Cl)c2)cc([N+](=O)[O-])c1` here?
**A.** > 125 µM

tested on: Candida tropicalis; test: Antifungal activity against Candida tropicalis 156 after 48 hrs by broth microdilution method; type: functional; conditions: Candida tropicalis, 156, 48 h

**Q.** Which IC80 does the source give for `O=[N+]([O-])c1cc(CSc2nnnn2-c2ccc(Cl)c(Cl)c2)cc([N+](=O)[O-])c1` here?
**A.** > 125 µM
